Tests used:
Format in all cases: biochemical
[1] = molecular target: T1, calpain-I isolated from human erythrocytes (Homo sapiens, UniProt P07384); assay: Calpain I kinetic fluorescence enzyme inhibition assay; settings: apparent Ki from IC50 by Cheng-Prussoff; average of 2 to 4 dose-effect plots
T1 construct: calpain-I—isolated from human erythrocytes; purchased Calbiochem 208713; host or cells: human erythrocytes (tissue isolate)
T1 sequence (P07384 1-714): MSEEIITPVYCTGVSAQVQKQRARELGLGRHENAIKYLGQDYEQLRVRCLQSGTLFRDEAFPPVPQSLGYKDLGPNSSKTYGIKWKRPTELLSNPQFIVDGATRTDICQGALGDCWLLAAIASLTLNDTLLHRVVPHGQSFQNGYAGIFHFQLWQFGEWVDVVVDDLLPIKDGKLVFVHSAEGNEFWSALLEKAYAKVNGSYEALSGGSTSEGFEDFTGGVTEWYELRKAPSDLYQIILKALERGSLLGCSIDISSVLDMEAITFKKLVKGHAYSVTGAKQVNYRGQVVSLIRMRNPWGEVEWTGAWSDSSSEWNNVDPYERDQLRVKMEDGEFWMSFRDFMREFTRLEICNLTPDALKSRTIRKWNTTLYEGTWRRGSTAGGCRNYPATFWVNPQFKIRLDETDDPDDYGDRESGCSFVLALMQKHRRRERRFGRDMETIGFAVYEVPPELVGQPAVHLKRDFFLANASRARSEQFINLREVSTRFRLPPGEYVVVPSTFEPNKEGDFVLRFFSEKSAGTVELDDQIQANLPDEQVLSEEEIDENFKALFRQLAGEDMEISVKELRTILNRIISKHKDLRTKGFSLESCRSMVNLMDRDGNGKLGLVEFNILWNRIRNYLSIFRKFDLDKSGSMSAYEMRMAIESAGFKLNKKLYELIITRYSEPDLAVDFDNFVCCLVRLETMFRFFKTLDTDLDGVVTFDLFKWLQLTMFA
T1 sequence (P04632 1-268 partner): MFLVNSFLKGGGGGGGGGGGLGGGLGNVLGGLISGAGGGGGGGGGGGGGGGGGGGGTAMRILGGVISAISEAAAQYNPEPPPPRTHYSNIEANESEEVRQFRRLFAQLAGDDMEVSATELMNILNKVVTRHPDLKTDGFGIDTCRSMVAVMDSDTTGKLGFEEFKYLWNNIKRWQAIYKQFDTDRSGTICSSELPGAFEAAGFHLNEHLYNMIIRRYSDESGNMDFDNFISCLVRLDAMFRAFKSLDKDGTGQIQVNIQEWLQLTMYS

[2] = molecular target: T2, cathepsin B isolated from human liver (Homo sapiens, UniProt P07858); assay: Cathepsin B kinetic fluorescence enzyme inhibition assay; settings: selectivity ratio versus calpain I
T2 construct: cathepsin B—isolated from human liver; purchased Calbiochem 219362; host or cells: human liver (tissue isolate)
Outline: (§1)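 cat B 0.25 nM + Z-Phe-Arg-AMC 100 μM; cat L 1 nM + Z-Phe-Arg-AMC 2 μM; cat S 0.5 nM (E. coli-expressed) + Z-Val-Val-Arg-AMC 20 μM. 50 mM MES pH 6.0, 2.5 mM L-Cys, RT. Ex 390/em 460, kinetic; Ki app = Cheng-Prusoff from IC50, mean of 2–4 curves.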

[3] = molecular target: T3, cathepsin K activated from recombinant human procathepsin K (Homo sapiens, UniProt P43235); assay: Cathepsin K kinetic fluorescence enzyme inhibition assay; settings: selectivity ratio versus calpain I
T3 construct: purchased Calbiochem 342001; host or cells: E. coli
T3 sequence (P43235 115-329): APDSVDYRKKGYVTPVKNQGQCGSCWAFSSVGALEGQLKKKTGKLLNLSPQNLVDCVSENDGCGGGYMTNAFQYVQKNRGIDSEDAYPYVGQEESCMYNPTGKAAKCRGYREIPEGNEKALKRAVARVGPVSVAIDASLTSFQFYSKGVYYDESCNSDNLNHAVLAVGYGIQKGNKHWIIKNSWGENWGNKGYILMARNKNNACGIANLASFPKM
Experimental: The following solutions and buffers were employed: • HBS (for 40 ml): 800 μl M HEPES; 2.16 ml 100 mM KCl; 4.8 ml 1M NaCl; 3.59 ml 5% glucose; 60 μl μM MgSO4; 400 μl 100 mM Na pyruvate, 28.19 ml water; pH 7.2-7.5. • lysis buffer (for 20 ml): 400 μl M Tris pH 8.2; 2.74 ml 1M NaCl; 520 μl 0.5M EDTA; 2 ml 10% triton X-100; 0.8 ml (=1:25) CompletePlus (1 tablet/2 ml H2O); 200 μl 100 mM Pefabloc; 13.34 ml water, pH 8.2. • TBST (10×) (for 1 l): 100 mM Tris (12.1 g); 1.5M NaCl (87 g); 1% Tween 20 (10 g), adjusted to pH 8. I Enzyme Inhibition In Vitro: • Testing for blockade of the corresponding enzymic activities was carried out by means of kinetic fluorescence assays (excitation 390 nm, emission 460 nm). • Apparent Ki values were calculated from the experimentally determined IC50 values by the Cheng-Prussoff relation assuming a reversible competitive enzyme inhibition. The Km values of the substrates used under the assay conditions indicated above were: 90 μM (Z-Phe-Arg-AMC, cathepsin B), 10 μM (Z-Gly-Pro-Arg-AMC, cathepsin K), 2 μM (Z-Phe-Arg-AMC, cathepsin L), and 30 μM (Z-Val-Val-Arg-AMC, cathepsin S). • The indicated Ki values are averages of the inhibition constants calculated on the basis of 2 to 4 independent dose-effect plots.
The following assays were used: • 1. Calpain I: • 20 nM calpain-I—isolated from human erythrocytes (Calbiochem #208713), 100 μM Suc-Leu-Tyr-AMC (Bachem #1-1355) as substrate in buffer with 62 mM imidazole, 0.3 mM CaCl2, 0.10% CHAPS, 0.05% BSA, 1 mM DTT at pH 7.3 and room temperature. • 2. Cathepsin B: • 0.25 nM cathepsin B—isolated from human liver (Calbiochem #219362), 100 μM Z-Phe-Arg-AMC (Bachem #I-1160) as substrate 50 mM MES, 2 mM EDTA, 0.05% Brij 35, 2.5 mM L-cysteine, pH 6.0, room temperature. • 3. Cathepsin K: • 3 nM cathepsin K—activated from recombinant human procathepsin K from E. coli (Calbiochem #342001), 10 μM Z-Gly-Pro-Arg-AMC (Biomol #P-142) as substrate in 50 mM MES, 2 mM EDTA, 0.05% Brij 35, 2.5 mM L-cysteine, pH 6.0, room temperature. • 4. Cathepsin L: • 1 nM cathepsin L—isolated from human liver (Calbiochem #219402), 2 μM Z-Phe-Arg-AMC (Bachem #1-1160) as substrate in 50 mM MES, 2 mM EDTA, 0.05% Brij 35, 2.5 mM L-cysteine, pH 6.0, room temperature. • 5. Cathepsin S: • 0.5 nM recombinant human cathepsin S from E. coli (Calbiochem #219343), 20 μM Z-Val-Val-Arg-AMC (Bachem #1-1540) as substrate in 50 mM MES, 2 mM EDTA, 0.05% Brij 35, 2.5 mM L-cysteine, pH 6.0, room temperature. • The results of the in vitro determination are indicated in Table 1. The following abbreviations are used in Table 1: • The “Calpain activity” column, ++ stands for a calpain Ki (Ki(calpain)) of ≦40 nM and + means: 40 nM<Ki(Calpain)≦100 nM. • The “Sel. cat. B” column indicates the Ki(cathepsin B)/Ki(calpain) ratio. In this connection, ++ means a Ki(cathepsin B)/Ki(calpain) ratio of ≧30 and + means 10≦Ki(cathepsin B)/Ki(calpain)<30. • The “Sel. cat. K” column indicates the Ki(cathepsin K)/Ki(calpain) ratio. In this connection, ++ means a Ki(cathepsin K)/Ki(calpain) ratio of ≧30 and + means 10≦Ki(cathepsin K)/Ki(calpain)<30. • The “Sel. cat. L” column indicates the Ki(cathepsin L)/Ki(calpain) ratio. In this connection, ++ means a Ki(cathepsin L)/Ki(calpain) ratio of ≧50 and + means 30≦Ki(cathepsin L)/Ki(calpain)<50. • The “Sel. cat. S” column indicates the Ki(cathepsin S)/Ki(calpain) ratio. In this connection, ++ means a Ki(cathepsin S)/Ki(calpain) ratio of ≧100 and + means 50≦Ki(cathepsin S)/Ki(calpain)<100.

[4] = molecular target: T4, cathepsin L isolated from human liver (Homo sapiens, UniProt P07711); assay: Cathepsin L kinetic fluorescence enzyme inhibition assay; settings: selectivity ratio versus calpain I
T4 construct: cathepsin L—isolated from human liver; purchased Calbiochem 219402; host or cells: human liver (tissue isolate)
T4 sequence (P07711 114-333): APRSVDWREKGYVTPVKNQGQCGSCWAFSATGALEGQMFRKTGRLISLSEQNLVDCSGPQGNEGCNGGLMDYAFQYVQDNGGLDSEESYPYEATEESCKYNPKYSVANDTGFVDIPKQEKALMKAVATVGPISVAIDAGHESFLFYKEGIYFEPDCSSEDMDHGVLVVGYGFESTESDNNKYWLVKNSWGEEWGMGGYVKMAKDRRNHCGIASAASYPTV
Outline: as §1

[5] = molecular target: T5, recombinant human cathepsin S (Homo sapiens, UniProt P25774); assay: Cathepsin S kinetic fluorescence enzyme inhibition assay; settings: selectivity ratio versus calpain I
T5 construct: purchased Calbiochem 219343; host or cells: E. coli
T5 sequence (P25774 115-331): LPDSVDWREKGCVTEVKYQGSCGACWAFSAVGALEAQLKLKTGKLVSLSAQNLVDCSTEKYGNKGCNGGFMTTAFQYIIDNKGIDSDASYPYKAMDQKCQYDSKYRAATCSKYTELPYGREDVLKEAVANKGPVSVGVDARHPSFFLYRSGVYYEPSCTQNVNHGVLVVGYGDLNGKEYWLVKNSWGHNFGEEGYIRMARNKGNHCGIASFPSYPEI
Outline: as §1

| SMILES | Ki [1] [nM] | Sel cat. B (Ki(cathepsin B)/Ki(calpain) ratio) [2] | Sel cat. K (Ki(cathepsin K)/Ki(calpain) ratio) [3] | Sel cat. L (Ki(cathepsin L)/Ki(calpain) ratio) [4] | Sel cat. S (Ki(cathepsin S)/Ki(calpain) ratio) [5] |
| --- | --- | --- | --- | --- | --- |
| NC(=O)C(=O)C(Cc1ccccc1)NC(=O)c1cccnc1-n1ccc(-c2ccccn2)n1 (stereo not drawn) [Example 35, N-(3-Amino-1-benzyl-2,3-dioxopropyl)-2-(3-pyridin-2-yl-1H-pyrazol-1-yl)nicotinamide] | 40 to 100 | + (10≦Ki(cathepsin B)/Ki(calpain)<30) | + (10≦Ki(cathepsin K)/Ki(calpain)<30) | ++ (Ki(cathepsin L)/Ki(calpain) ratio of ≧50) | ++ (Ki(cathepsin S)/Ki(calpain) ratio of ≧100) |
| NC(=O)C(=O)C(Cc1ccccc1)NC(=O)c1cccnc1-n1ccc(-c2ccc(F)cc2)n1 (stereo not drawn) [Example 38, N-(3-Amino-1-benzyl-2,3-dioxopropyl)-2-[3-(4-fluorophenyl)-1H-pyrazol-1-yl]nicotinamide] | 40 to 100 | + (10≦Ki(cathepsin B)/Ki(calpain)<30) | + (10≦Ki(cathepsin K)/Ki(calpain)<30) | ++ (Ki(cathepsin L)/Ki(calpain) ratio of ≧50) | ++ (Ki(cathepsin S)/Ki(calpain) ratio of ≧100) |
| COc1ccc(-c2ccn(-c3ncccc3C(=O)NC(Cc3ccccc3)C(=O)C(N)=O)n2)cc1 (stereo not drawn) [Example 48, N-(3-Amino-1-benzyl-2,3-dioxopropyl)-2-[3-(4-methoxyphenyl)-1H-pyrazol-1-yl]nicotinamide] | 40 to 100 | + (10≦Ki(cathepsin B)/Ki(calpain)<30) | + (10≦Ki(cathepsin K)/Ki(calpain)<30) | ++ (Ki(cathepsin L)/Ki(calpain) ratio of ≧50) | ++ (Ki(cathepsin S)/Ki(calpain) ratio of ≧100) |
| NC(=O)C(=O)C(Cc1ccc(Cl)cc1)NC(=O)c1cccnc1-n1ccc(-c2ccccc2)n1 (stereo not drawn) [Example 50, N-[3-Amino-1-(4-chlorobenzyl)-2,3-dioxopropyl]-2-(3-phenyl-1H-pyrazol-1-yl)nicotinamide] | 40 to 100 | + (10≦Ki(cathepsin B)/Ki(calpain)<30) | + (10≦Ki(cathepsin K)/Ki(calpain)<30) | + (30≦Ki(cathepsin L)/Ki(calpain)<50) | + (50≦Ki(cathepsin S)/Ki(calpain)<100) |
| NC(=O)C(=O)C(Cc1ccccc1)NC(=O)c1cccnc1-n1ccc(-c2ccccc2Cl)n1 (stereo not drawn) [Example 54, N-(3-Amino-1-benzyl-2,3-dioxopropyl)-2-[3-(2-chlorophenyl)-1H-pyrazol-1-yl]nicotinamide] | 40 to 100 | ++ (Ki(cathepsin B)/Ki(calpain) ratio of ≧30) | ++ (Ki(cathepsin K)/Ki(calpain) ratio of ≧30) | ++ (Ki(cathepsin L)/Ki(calpain) ratio of ≧50) | ++ (Ki(cathepsin S)/Ki(calpain) ratio of ≧100) |
| NC(=O)C(=O)C(Cc1ccccc1)NC(=O)c1cccnc1-n1ccc(-c2cccs2)n1 (stereo not drawn) [Example 55, N-(3-Amino-1-benzyl-2,3-dioxopropyl)-2-[3-(2-thienyl)-1H-pyrazol-1-yl]nicotinamide] | ≤ 40 | + (10≦Ki(cathepsin B)/Ki(calpain)<30) | + (10≦Ki(cathepsin K)/Ki(calpain)<30) | ++ (Ki(cathepsin L)/Ki(calpain) ratio of ≧50) | ++ (Ki(cathepsin S)/Ki(calpain) ratio of ≧100) |

Source: patent publication US7728012B2, “Carboxamide compounds and their use as calpain inhibitors” (Abbott GmbH & Co. KG, priority 2006, dated 2010)
